Measured values taken from US9975884B2, “Kojic acid-derived mannich bases with biological effect” (priority 2015, dated 2018).
Converted amounts (≈) assume the structure as drawn. Read-outs that look alike come from different tables or passages of the source.

Columns and labels:
M. avium (ATCC 15769) = experiment: Antimycobacterial activity; format: cell-based, Mycobacterium avium; settings: for MIC: Mycobacterium avium
tyrosinase = format: biochemical
Metal chelation effect = settings: for iron chelation effect: dose amount of 1000 μg/ml
[1] = Phosphomolybdenum reduction antioxidant power (PRAP); settings: for Phosphomolybdenum Reduction Antioxidant Power (Absorbance at 600 nm ± S.S): 1000 μg/ml
[2] = DPPH free radical scavenging effect; settings: 1000 μg/ml
collagenase = experiment: Collagenase enzyme inhibition; format: biochemical
Description: Physical properties of the compounds such as efficiency of synthesis reactions and melting points are determined. […] Antidermatophytic activity of the compounds against Trichophyton mentagrophytes var. erinacei, Epidermophyton floccosum and Microsporum gypseum as well as their antimycobacterial activity against Mycobacterium tuberculosis H37Rv (ATCC 27294) and M. avium (ATCC 15769) are analyzed under non-toxic concentrations using MRC-5 and He-La cell lines. Antityrosinase activity thereof is determined by spectrophotometric method using L-DOPA as a substrate. Antioxidant activity is determined by the methods of 2,2-diphenyl-1-picrilhydrasil (DPPH), N,N-dimethyl-p-phenylenediamine (DMPD) radical scavenging activity, metal chelation effect, iron-(FRAP), phosphomolybdenum-(PRAP) reducing antioxidant power. Elastase and collagenase enzyme inhibitions are performed to determine anti-aging activity. Due to their antityrosinase, antioxidant, anti-aging, antidermatophytic and antimycobacterial effects, the compounds may be used in medicine, cosmeceutical, food and textile industry.

[3] = DMPD radical scavenging effect; settings: 1000 μg/ml
elastase = experiment: Elastase enzyme inhibition; format: biochemical
[4] = Iron reduction antioxidant power (FRAP); settings: 1000 μg/ml
Solubility in solvents = format: physicochemical
Description: Melting point: 180-1<*>C, Yield: 90%. White powder crystals. Insoluble in water, low-solubility in methanol, ethanol and acetone, and soluble in chloroform.
Melting point 196-7° C., Yield: 93%. White powder crystals. Insoluble in water, methanol, ethanol and acetone, but soluble in chloroform.

[5] = ATCC15769, value column 8 of the table, read-out: MIC against M. avium

Compound | Metal Chelation Effect (Chelation % ± S.S) (Metal chelation effect; 1000 μg/ml) [%] | antioxidant power of phosphomolybdenum structure [1] [µg/mL] | Phosphomolybdenum Reduction Antioxidant Power (Absorbance at 600 nm ± S.S) [1] | DPPH Free Radical Scavenging Effect (Scavenging % ± S.S) [2] [%] | Collagenase Enzyme Inhibition (Inhibition % ± S.S) (collagenase; 1000 μg/ml-Stock) [%] | DMPD Radical Scavenging Effect (Scavenging % ± S.S) [3] [%] | elastase enzyme inhibition (elastase) | Iron Reduction Antioxidant Power (Absorbance at 700 nm ± S.S) [4] | further results
O=c1cc(CO)occ1O [Kojic Acid, Kojic acid] | 8.89 ± 0.75 | 0.103 ± 0.006 | 0.103 ± 0.006 | 22.51 ± 2.65 | 15.18 ± 5.92 | 41.86 ± 1.10 | No elastase enzyme inhibition is detected | 0.757 ± 0.026 | MIC (M. avium (ATCC 15769); ATCC15769, read-out: MIC against M. avium): 16 µg/mL (≈ 113 µM); Low-dose antityrosinase activity (tyrosinase; 0.025 mg/ml): 18.65 ± 1.33; Low-dose antityrosinase activity (tyrosinase; 0.05 mg/ml): 44.74 ± 0.53; Low-dose antityrosinase activity (tyrosinase; 0.1 mg/ml): 61.28 ± 2.03; Low-dose antityrosinase activity (tyrosinase; 0.25 mg/ml): 77.44 ± 0.68
O=C1O[C@H]([C@@H](O)CO)C(O)=C1O [Ascorbic acid] | – | – | – | – | – | 69.58 ± 0.71 | – | – | –
O=C(O[C@@H]1Cc2c(O)cc(O)cc2O[C@@H]1c1cc(O)c(O)c(O)c1)c1cc(O)c(O)c(O)c1 [EGCG, epigallocatechin gallate] | – | – | – | – | – | – | – | – | Collagenase Enzyme Inhibition (Inhibition % ± S.S) (collagenase; 15 mM): 44.64 ± 2.87%
O=c1cc(CO)oc(CN2CCN(Cc3ccc(Cl)c(Cl)c3)CC2)c1O [Compound of Formula 1] | 67.57 ± 1.30 | 0.154 ± 0.004 | 0.154 ± 0.004 | 14.59 ± 2.52 | 15.57 ± 2.24 | 36.05 ± 3.11 | No elastase enzyme inhibition is detected | 0.274 ± 0.003 | MIC (M. avium (ATCC 15769); [5]): 2 µg/mL; melting point: 180 to 181 °C; IC50 (tyrosinase) (tyrosinase): 11 ± 1 µg/mL; Low-dose antityrosinase activity (tyrosinase; 0.0025 mg/ml): 23.63 ± 1.65; Low-dose antityrosinase activity (tyrosinase; 0.005 mg/ml): 37.81 ± 0.54; Low-dose antityrosinase activity (tyrosinase; 0.01 mg/ml): 51.25 ± 1.09; Low-dose antityrosinase activity (tyrosinase; 0.025 mg/ml): 56.79 ± 0.44; Low-dose antityrosinase activity (tyrosinase; 0.05 mg/ml): 70.62 ± 1.62; Low-dose antityrosinase activity (tyrosinase; 0.1 mg/ml): 73.57 ± 4.81; Low-dose antityrosinase activity (tyrosinase; 0.25 mg/ml): 80.63 ± 2.01; antityrosinase effect, times higher than kojic acid (tyrosinase; relative to kojic acid): 6 times; iron chelation effect (Metal chelation effect): 67.57±1.30%; solubility in chloroform (Solubility in solvents): soluble; solubility in methanol, ethanol and acetone (Solubility in solvents): low-solubility; solubility in water (Solubility in solvents): Insoluble
3-Hydmxy-6-(hydmxymethyl)-2-[{4-(2,6 diclorobenzyl)piperazme-1-il]methyl-4H-pyran-4-one [Compound of Formula 2] | 58.17 ± 0.99 | 0.187 ± 0.017 | 0.187 ± 0.017 | 12.20 ± 1.72 | 12.40 ± 4.57 | 24.94 ± 1.64 | No elastase enzyme inhibition is detected | 0.217 ± 0.002 | MIC against M. avium (M. avium (ATCC 15769)): 2 µg/mL; iron chelation effect (Metal chelation effect): 58.17±0.99%; solubility in chloroform (Solubility in solvents): soluble; solubility in methanol, ethanol and acetone (Solubility in solvents): Insoluble; solubility in water (Solubility in solvents): Insoluble
O=C(O)CN(CCN(CC(=O)O)CC(=O)O)CC(=O)O [EDTA, ethylenediaminetetraacetic acid] | – | – | – | – | – | – | – | – | Metal Chelation Effect (Chelation % ± S.S) (Metal chelation effect; 2000 μg/ml): 97.66±0.12%
NNC(=O)c1ccncc1 [Isoniazide] | – | – | – | – | – | – | – | – | MIC (M. avium (ATCC 15769); [5]): 0.125 µg/mL (≈ 0.911 µM)
O=c1c(O)c(-c2ccc(O)c(O)c2)oc2cc(O)cc(O)c12 [Quercetin, quercetin] | – | – | 0.320 ± 0.005 | 91.14 ± 0.65 | – | – | – | 2.015 ± 0.032 | –
